Experimental data published in US11541132B2, “Radiolabeled compounds” (Hoffmann-La Roche Inc., priority 2017, dated 2023).

Experiments:
[1] = molecular target: T1, native Aβ aggregates in human AD brain tissue sections (Homo sapiens, UniProt P05067); test: Aβ in vitro displacement assay (selectivity counterscreen, [3H]Example 3 autoradiography); assay type: binding; details: 1 μM compound; 3 nM [3H]Example 3; human AD brain sections; read-out: sel. counterscreen PCT_INHIB AD @ 1 μM (% displacement of [3H]Example 3)
T1 construct: native Aβ aggregates in human AD brain tissue samples; from tissue; host or cells: human AD brain tissue sections

[2] = molecular target: T2, native aSyn aggregates in A30P transgenic mouse brain sections (Homo sapiens, UniProt P37840, A30P); test: aSyn in vitro displacement assay ([3H]Example-3 autoradiography); assay type: binding, mutant human aSyn gene); details: 1 μM compound; 3 nM [3H]Example-3; A30P transgenic mouse brain sections; read-out: PCT_INHIB A30P @ 1 μM (% displacement of [3H]Example-3)
T2 construct: from tissue; host or cells: brain sections (midbrain and pons as ROI) of A30P transgenic mice, line B6.D2-Tg(Thy1-SNCA*30P)31Pjk

T1 sequence (P05067 672-713 limits assumed): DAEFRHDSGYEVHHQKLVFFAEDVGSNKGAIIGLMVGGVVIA

Compound | inhibition at 1 µM [1] | inhibition at 1 µM [2]
N#Cc1ccc(N2CCN(c3ccc(NC(=O)c4ccc(OCCF)cc4)cc3)CC2)nc1 [Example 116, N-[4-[4-(5-Cyano-2-pyridyl)piperazin-1-yl]phenyl]-4-(2-fluoroethoxy)benzamide] | 85% | 81%
N#Cc1ccc(N2CCN(c3ccc(NC(=O)c4ccc(OCCF)cc4)cc3)CC2)cc1 [Example 117, N-[4-[4-(4-Cyanophenyl)piperazin-1-yl]phenyl]-4-(2-fluoroethoxy)benzamide] | 88% | 90%
O=C(Nc1ccc(N2CCN(c3ccccn3)CC2)cc1)c1ccc(OCCF)cc1 [Example 118, 4-(2-Fluoroethoxy)-N-[4-[4-(2-pyridyl)piperazin-1-yl]phenyl]benzamide] | 92% | 88%
O=C(Nc1ccc(N2CCN(c3nccs3)CC2)cc1)c1ccc(OCCF)cc1 [Example 119, 4-(2-Fluoroethoxy)-N-[4-(4-thiazol-2-ylpiperazin-1-yl)phenyl]benzamide] | 89% | 83%
O=C(Nc1ccc(N2CCN(c3nccs3)CC2)cc1)c1ccc(OCCOCCOCCF)cc1 [Example 120, 4-[2-[2-(2-Fluoroethoxy)ethoxy]ethoxy]-N-[4-(4-thiazol-2-ylpiperazin-1-yl)phenyl]benzamide] | 93% | 81%
N#Cc1ccc(N2CCN(c3ccc(NC(=O)c4ccc(OCCOCCF)cc4)cc3)CC2)nc1 [Example 121, N-(4-(4-(5-cyanopyridin-2-yl)piperazin-1-yl)phenyl)-4-(2-(2-fluoroethoxy)ethoxy)benzamide] | 86% | 87%
N#Cc1ccc(N2CCN(c3ccc(NC(=O)c4ccc(OCCOCCF)cc4)cc3)CC2)cc1 [Example 122, N-(4-(4-(4-cyanophenyl)piperazin-1-yl)phenyl)-4-(2-(2-fluoroethoxy)ethoxy) benzamide] | 85% | 88%
N#Cc1ccc(N2CCN(c3ccc(NC(=O)c4ccc(OCCOCCOCCF)cc4)cc3)CC2)cc1 [Example 123, N-[4-[4-(4-Cyanophenyl)piperazin-1-yl]phenyl]-4-[2-[2-(2-fluoroethoxy)ethoxy]ethoxy]benzamide] | 95% | 80%
COc1ccc(C(=O)Nc2ccc(N3C[C@H]4CN(c5ccccn5)C[C@@H]4C3)cc2)cc1 [Example 132, 4-Methoxy-N-(4-((3aS,6aS)-5-(pyridin-2-yl)hexahydropyrrolo[3,4-c]pyrrol-2(1H)-yl)phenyl)benzamide] | 20% | 82%
COc1ccc(C(=O)Nc2ccc(N3C[C@@H]4CN(c5ccccn5)C[C@H]4C3)cc2)cc1 [Example 133, 4-Methoxy-N-(4-((3aR,6aR)-5-(pyridin-2-yl)hexahydropyrrolo[3,4-c]pyrrol-2(1H)-yl)phenyl)benzamide] | 84% | 85%
O=C(Nc1ccc(N2CCN(c3cccnc3)CC2)cc1)c1ccc(OCF)cc1 [Example 134, 4-(fluoromethoxy)-N-(4-(4-(pyridin-3-yl)piperazin-1-yl)phenyl)benzamide] | 93% | 94%
O=C(Nc1ccc(N2CCN(c3ccccn3)CC2)cc1)c1ccc(OCF)cc1 [Example 135, 4-(fluoromethoxy)-N-[4-(4-pyridin-2-ylpiperazin-1-yl)phenyl]benzamide] | 98% | 97%
N#Cc1ccc(N2CCN(c3ccc(NC(=O)c4ccc(OCF)cc4)cc3)CC2)nc1 [Example 136, N-(4-(4-(5-cyanopyridin-2-yl)piperazin-1-yl)phenyl)-4-(fluoromethoxy) benzamide] | 92% | 91%
O=C(Nc1ccc(N2CCN(c3ccccn3)CC2)cc1)c1ccc(OCCOCCO)cc1 [Example 137, 4-(2-(2-Hydroxyethoxy)ethoxy)-N-(4-(4-(pyridin-2-yl)piperazin-1-yl)phenyl)benzamide] | 92% | 80%
O=C(Nc1ccc(N2CCN(c3cccnc3)CC2)cc1)c1ccc(O)cc1 [Example 138, 4-Hydroxy-N-[4-(4-pyridin-3-ylpiperazin-1-yl)phenyl]benzamide] | 89% | 82%
COc1ccc(C(=O)Nc2ccc(N3CCN(c4ccc(C#N)cc4OC)CC3)cc2)cc1 [Example 139, N-(4-(4-(4-Cyano-2-methoxyphenyl)piperazin-1-yl)phenyl)-4-methoxybenzamide] | 94% | 94%
COc1ccc(C(=O)Nc2ccc(N3CCN(c4ccc(C#N)c(OC)c4)CC3)cc2)cc1 [Example 140, N-(4-(4-(4-Cyano-3-methoxyphenyl)piperazin-1-yl)phenyl)-4-methoxybenzamide] | 93% | 94%
COc1ccc(C(=O)Nc2ccc(N3CCN(c4ccc(F)cn4)CC3)cc2)cc1 [Example 141, N-(4-(4-(5-Fluoropyridin-2-yl)piperazin-1-yl)phenyl)-4-methoxybenzamide] | 94% | 96%
COc1ccc(C(=O)Nc2ccc(N3CCN(c4ccc(N(C)C)cn4)CC3)cc2)cc1 [Example 142, N-(4-(4-(5-(Dimethylamino)pyridin-2-yl)piperazin-1-yl)phenyl)-4-methoxybenzamide] | 91% | 91%
COc1ccc(C(=O)Nc2ccc(N3CCN(c4ncc(C#N)cn4)CC3)cc2)cc1 [Example 143, N-(4-(4-(5-Cyanopyrimidin-2-yl)piperazin-1-yl)phenyl)-4-methoxybenzamide] | 91% | 91%
COc1ccc(C(=O)Nc2ccc(N3CCN(c4ccc(C#N)cc4C)CC3)cc2)cc1 [Example 144, N-(4-(4-(4-Cyano-2-methylphenyl)piperazin-1-yl)phenyl)-4-methoxybenzamide] | 92% | 89%
COc1ccc(C(=O)Nc2ccc(N3CCN(c4ccc(C#N)cc4F)CC3)cc2)cc1 [Example 145, N-(4-(4-(4-Cyano-2-fluorophenyl)piperazin-1-yl)phenyl)-4-methoxybenzamide] | 97% | 98%

Further lines, results first:

inhibition at 1 µM [1] | inhibition at 1 µM [2] | Compound
91% | 95% | COc1ccc(C(=O)Nc2ccc(N3CCN(c4cccc(F)n4)CC3)cc2)cc1 [Example 146, N-(4-(4-(6-Fluoropyridin-2-yl)piperazin-1-yl)phenyl)-4-methoxybenzamide]
91% | 88% | COc1ccc(C(=O)Nc2ccc(N3CCN(c4cnc(C#N)cn4)CC3)cc2)cc1 [Example 147, N-(4-(4-(5-Cyanopyrazin-2-yl)piperazin-1-yl)phenyl)-4-methoxybenzamide]
89% | 86% | COc1ccc(C(=O)Nc2ccc(N3CCN(c4ncccc4F)CC3)cc2)cc1 [Example 148, N-(4-(4-(3-Fluoropyridin-2-yl)piperazin-1-yl)phenyl)-4-methoxybenzamide]
91% | 93% | COc1ccc(C(=O)Nc2ccc(N3CCN(c4cc(Cl)ccn4)CC3)cc2)cc1 [Example 149, N-(4-(4-(4-Chloropyridin-2-yl)piperazin-1-yl)phenyl)-4-methoxybenzamide]
94% | 98% | COc1ccc(C(=O)Nc2ccc(N3CCN(c4ccc(C#N)c(F)c4)CC3)cc2)cc1 [Example 150, N-(4-(4-(4-Cyano-3-fluorophenyl)piperazin-1-yl)phenyl)-4-methoxybenzamide]
91% | 93% | COc1ccc(C(=O)Nc2ccc(N3CCN(c4cc(C)c(C#N)cn4)CC3)cc2)cc1 [Example 151, N-(4-(4-(5-Cyano-4-methylpyridin-2-yl)piperazin-1-yl)phenyl)-4-methoxybenzamide]
88% | 90% | COc1ccc(C(=O)Nc2ccc(N3CCN(c4cc(Cl)c(C#N)cn4)CC3)cc2)cc1 [Example 152, N-(4-(4-(4-Chloro-5-cyanopyridin-2-yl)piperazin-1-yl)phenyl)-4-methoxybenzamide]
87% | 92% | COc1ccc(C(=O)Nc2ccc(N3CCN(c4ccc(C#N)c(C)c4)CC3)cc2)cc1 [Example 153, N-(4-(4-(4-Cyano-3-methylphenyl)piperazin-1-yl)phenyl)-4-methoxybenzamide]
96% | 98% | COc1ccc(C(=O)Nc2ccc(N3CCN(c4ccc(C#N)nc4)CC3)cc2)cc1 [Example 154, N-(4-(4-(6-Cyanopyridin-3-yl)piperazin-1-yl)phenyl)-4-methoxybenzamide]
97% | 85% | COc1ccc(C(=O)Nc2ccc(N3CCN(c4ccnc(OC)c4)CC3)cc2)cc1 [Example 155, 4-Methoxy-N-(4-(4-(2-methoxypyridin-4-yl)piperazin-1-yl)phenyl)benzamide]
76% | 81% | COc1ccc(C(=O)Nc2ccc(N3CCN(c4ccc(C)nc4)CC3)cc2)cc1 [Example 156, 4-Methoxy-N-(4-(4-(6-methylpyridin-3-yl)piperazin-1-yl)phenyl)benzamide]
92% | 91% | COc1ccc(C(=O)Nc2ccc(N3CCN(c4ccc(C#N)cc4)CC3)cc2)cn1 [Example 157, N-(4-(4-(4-Cyanophenyl)piperazin-1-yl)phenyl)-6-methoxynicotinamide]
87% | 83% | Cn1cc(C(=O)Nc2ccc(N3CCN(c4ccc(C#N)cc4)CC3)cc2)cn1 [Example 158, N-(4-(4-(4-Cyanophenyl)piperazin-1-yl)phenyl)-1-methyl-1H-pyrazole-4-carboxamide]
